{
  "source": "patent US20190352610A1",
  "about": "“METHODS OF GENERATING HEPATIC MACROPHAGES AND USES THEREOF” (AGENCY FOR SCIENCE, TECHNOLOGY AND RESEARCH, priority 2017, published 2019)",
  "key": {"[1]": {"tested_on": "PHHs-NL-Mφ co-cultures", "assay": "Alamar Blue cell viability, PHHs-NL-Mφ co-cultures", "type": "cell-based, human", "details": "24 hours treatment, PHHs-NL-Mφ co-cultures vs PHHs monocultures, FIG. 5C", "description": "(§1) PHHs monocultures, PHHs-PHKCs co-cultures (FIG. 5A), PHHs-hPSC-KCs co-cultures (FIG. 5B) and PHHs-hPSC-Mac co-cultures (FIG. 5C) treated with LPS (solid lines) or left untreated (dashed lines) were exposed to Acetaminophen (APAP) 16 hours after LPS treatment. 24 hours after addition of the drug, cell viability was assayed using Alamar Blue. Cell viability is expressed as percentage of viable cells compared to vehicle control (DMSO). Data are presented as mean±s.d (n=3). * indicates statistically significant differences between LPS-activated monoculture and co-culture; # indicate statistically significant differences between non-activated monoculture and co-culture (p<0.05).\n(§2) Previous reports have shown the suppression of CYP expression and activity in human and rat hepatocytes when co-cultured with Kupffer cells. […] Therefore, it was analyzed if differences could be identified between PHHs-PHKCs co-cultures and PHHs monocultures in toxicity responses to paradigm hepatotoxicants, and if this difference could be recapitulated in PHHs-hPSC-KCs or PHHs-hPSC-Mac co-cultures. The monocultures and co-cultures were treated with the paradigm hepatotoxicant acetaminophen for 24 hours, and cell viability was measured using Alamar Blue assay. Cell viability was quantified as percentage of […] compared to vehicle control (DMSO)."}, "[2]": {"tested_on": "PHHs-PHKCs co-cultures", "assay": "Alamar Blue cell viability, PHHs-PHKCs co-cultures", "type": "cell-based, human", "details": "24 hours treatment, PHHs-PHKCs co-cultures vs PHHs monocultures, FIG. 5A", "description": "as §1, §2"}, "[3]": {"tested_on": "PHHs-hPSC-KCs co-cultures", "assay": "Alamar Blue cell viability, PHHs-hPSC-KCs co-cultures", "type": "cell-based, human", "details": "24 hours treatment, PHHs-hPSC-KCs co-cultures vs PHHs monocultures, FIG. 5B", "description": "as §1, §2"}, "[4]": {"tested_on": "hPSC-KCs", "assay": "cytokine production (ELISA) and morphology upon LPS activation, hPSC-KCs", "type": "cell-based, human", "description": "(§3) FIG. 3A are phase contrast images showing morphological changes in hPSC-KCs (upper panel) and NL-Mφ (lower panel) following LPS treatment. Scale bar: 100 μm. […] Supernatant from cell cultures were collected 16 hours after LPS treatment and cytokine production was measured using ELISA. IL-6 and TNF4α (after LPS treatment) production was not detected in PHHs. TNF4α production was not detected in NL-Mφ before LPS treatment. Data are presented after normalization to cell numbers and the bars represent mean±s.d. (n=3). Dashed lines represent fold differences between cytokine production before and after LPS treatment (folds are indicated on top of the dashed lines). Solid lines represent p<0.05 (two-tailed paired t-test). […] No significant differences were observed between IL-6 levels in hPSC-KCs and PHKCs in terms of basal levels (no LPS treatment) and LPS-induced levels. The fold increase in TNF4α production in hPSC-KCs (33 fold) was similar to the fold increase in PHKCs (35 fold). […] It has been reported that Kupffer cells show a lower extent of cytokine production upon cytokine stimulation.\nFor activation of hPSC-KCs to examine cytokine production, lipopolysaccharide (LPS) was added to the culture medium during the last 16 hours of culture. Medium was collected at the end of the incubation period and morphological changes and cytokine production upon LPS activation was analyzed. […] The fold increase in TNF4α production in hPSC-KCs (33 fold) was similar to the fold increase in PHKCs (35 fold) (FIG. 3C)."}, "[5]": {"tested_on": "NL-Mφ (non-liver macrophages)", "assay": "cytokine production (ELISA) and morphology upon LPS activation, NL-Mφ", "type": "cell-based, human", "description": "as §3\n(§4) For activation of hPSC-KCs to examine cytokine production, lipopolysaccharide (LPS) was added to the culture medium during the last 16 hours of culture. Medium was collected at the end of the incubation period and morphological changes and cytokine production upon LPS activation was analyzed. […]"}, "[6]": {"tested_on": "PHKCs (primary human Kupffer cells)", "assay": "cytokine production (ELISA) upon LPS activation, PHKCs", "type": "cell-based", "details": "LPS during last 16 hours of culture", "description": "as §3, §4"}, "[7]": {"tested_on": "primary human hepatocytes (PHHs)", "assay": "cytokine production (ELISA) upon LPS activation, PHHs", "type": "cell-based", "description": "as §3, §4"}},
  "data": [
    {"molecule": "CC(=O)Nc1ccc(O)cc1", "note": "[acetaminophen]", "values": [
      {"measurement": "cell death compared to PHHs monocultures", "setting": "[1]", "value": "No difference in cell death"},
      {"measurement": "cell death compared to monoculture controls", "setting": "[2]", "value": "higher cell death"},
      {"measurement": "cell death compared to monoculture controls", "setting": "[3]", "value": "higher cell death"}
    ]},
    {"molecule": "lipopolysaccharide [LPS]", "values": [
      {"measurement": "morphological changes", "setting": "[4]; LPS activation, FIG. 3A", "value": "from round to flat and spread cells"},
      {"measurement": "fold induction of IL-6 production", "setting": "[4]; LPS during last 16 hours of culture, FIG. 3B", "value": "in the same range as that of the PHKCs"},
      {"measurement": "fold increase in TNF4α production", "setting": "[4]; LPS during last 16 hours of culture, FIG. 3C", "value": 33, "unit": "fold"},
      {"measurement": "levels of cytokines (IL-6, TNF4α)", "setting": "[5]; NL-Mφ compared to PHKCs and hPSC-KCs, FIG. 3B and 3C", "value": "much higher levels"},
      {"measurement": "morphological changes", "setting": "[5]; NL-Mφ, LPS activation, FIG. 3A", "value": "from round to flat and spread cells"},
      {"measurement": "fold induction of IL-6 production", "setting": "[6]; FIG. 3B", "value": 25, "unit": "fold"},
      {"measurement": "fold increase in TNF4α production", "setting": "[6]; FIG. 3C", "value": 35, "unit": "fold"},
      {"measurement": "IL-6 production", "setting": "[7]; FIG. 3B", "value": "below detectable levels"},
      {"measurement": "TNF4α production", "setting": "[7]; upon LPS activation", "value": "below detectable levels"}
    ]}
  ]
}
